pKi: −log10 of the molar value.
Assays:
wild-type E. coli Top10 = assay: Growth rate of wild-type E. coli Top10 with transcription and translation inhibitors (microplate OD600); assay type: cell-based, Escherichia coli
Procedure: Seed cultures were grown in LB medium supplemented with 30 μg/ml kanamycin from freshly transformed plates and after 10 to 12 h of overnight growth, pre-cultures were inoculated in fresh LB medium at a dilution of 100× for 2 to 3 h exponential growth (OD600=0.7−1). For characterization of the promoters in the vector pBbE8K, cell cultures were grown in 5 mL of pre-warmed LB medium at 37° C. in 50 mL test tubes, shaken at 225 rpm. The culture tubes were kept in ice for about 5 min to stop further growth and were pelleted by centrifugation for 2 min at 3300 g in 4° C., washed and diluted to OD600=0.1 by resuspension in pre-warmed supplemented minimal media with different glucose concentrations ranging from 20 mM to 0.1 mM. Cultures were then […] into transparent, flat-bottom 96-well plate in triplicate aliquots of […]. The plate was incubated in 37° C. with shaking for 8 min and growth rates were monitored by measuring absorbance at 600 nm and fluorescence were monitored by measuring RFP at excitation 535 nm and emission 600 nm using Synergy HT microplate reader (Biotek) over time. Time series OD600 and RFP data were collected for every 10 min for a total run time of 6 h.
[…] The cells were subjected to a microplate assay to measure their OD600 for 6 h. Three biological replicates were used for all of the experiments conducted.
For each promoter, the three OD600 and RFP data were averaged and background absorbance (wells containing only media) and fluorescence (Top10—E8K)) were subtracted from the raw measurements to obtain OD600 and RFP time series. Measurements were obtained in mid-exponential growth and growth rates were calculated as a time derivative of the OD curves, μ=d ln(OD)/dt. The activity of the promoters (RFP synthesis rate per cell) were calculated by, d(RFP)/dt/OD600. Relative promoter units of every promoter studied were calculated by, […]

E. coli RNA polymerase = E. coli RNA polymerase (Escherichia coli, UniProt P0A8V2); details: used in simulations, reference (44); read-out: inhibitory potency KI; cited from earlier work
E. coli RNA polymerase, sequence (P0A8V2 whole entry): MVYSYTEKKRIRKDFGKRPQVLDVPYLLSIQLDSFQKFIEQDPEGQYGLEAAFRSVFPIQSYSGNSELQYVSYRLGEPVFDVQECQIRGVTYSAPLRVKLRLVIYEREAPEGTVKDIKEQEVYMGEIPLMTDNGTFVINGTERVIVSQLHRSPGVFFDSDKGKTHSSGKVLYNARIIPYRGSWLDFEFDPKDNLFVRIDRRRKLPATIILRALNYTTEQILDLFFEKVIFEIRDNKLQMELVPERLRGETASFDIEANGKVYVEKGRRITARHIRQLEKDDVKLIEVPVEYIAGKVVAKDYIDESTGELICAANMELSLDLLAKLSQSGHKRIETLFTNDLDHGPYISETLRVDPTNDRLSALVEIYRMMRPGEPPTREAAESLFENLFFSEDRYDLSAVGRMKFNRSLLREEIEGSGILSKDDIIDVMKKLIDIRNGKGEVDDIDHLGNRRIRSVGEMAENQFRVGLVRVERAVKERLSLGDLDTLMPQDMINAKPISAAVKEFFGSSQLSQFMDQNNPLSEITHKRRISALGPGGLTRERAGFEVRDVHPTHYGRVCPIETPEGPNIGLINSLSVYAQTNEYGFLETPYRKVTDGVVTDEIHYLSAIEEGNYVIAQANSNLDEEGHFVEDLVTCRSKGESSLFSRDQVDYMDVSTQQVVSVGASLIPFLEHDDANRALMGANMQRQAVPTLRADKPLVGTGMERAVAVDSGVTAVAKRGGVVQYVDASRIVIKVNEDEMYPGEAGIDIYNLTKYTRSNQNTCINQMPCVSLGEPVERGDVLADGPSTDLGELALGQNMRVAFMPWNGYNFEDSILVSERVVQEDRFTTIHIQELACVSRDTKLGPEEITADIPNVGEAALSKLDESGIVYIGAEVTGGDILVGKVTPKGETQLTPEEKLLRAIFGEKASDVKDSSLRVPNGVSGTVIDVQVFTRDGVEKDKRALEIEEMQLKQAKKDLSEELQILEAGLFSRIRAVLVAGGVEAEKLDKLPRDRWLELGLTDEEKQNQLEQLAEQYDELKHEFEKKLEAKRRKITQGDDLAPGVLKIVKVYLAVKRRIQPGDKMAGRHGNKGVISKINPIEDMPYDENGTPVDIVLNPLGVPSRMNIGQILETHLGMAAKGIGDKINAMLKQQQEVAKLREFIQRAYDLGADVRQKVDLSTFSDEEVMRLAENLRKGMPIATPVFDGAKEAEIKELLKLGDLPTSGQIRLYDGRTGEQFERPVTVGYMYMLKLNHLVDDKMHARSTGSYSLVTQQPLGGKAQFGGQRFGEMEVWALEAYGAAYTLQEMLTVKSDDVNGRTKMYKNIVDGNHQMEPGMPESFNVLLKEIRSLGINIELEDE
E. coli RNA polymerase, sequence (P0A8T7 whole entry partner): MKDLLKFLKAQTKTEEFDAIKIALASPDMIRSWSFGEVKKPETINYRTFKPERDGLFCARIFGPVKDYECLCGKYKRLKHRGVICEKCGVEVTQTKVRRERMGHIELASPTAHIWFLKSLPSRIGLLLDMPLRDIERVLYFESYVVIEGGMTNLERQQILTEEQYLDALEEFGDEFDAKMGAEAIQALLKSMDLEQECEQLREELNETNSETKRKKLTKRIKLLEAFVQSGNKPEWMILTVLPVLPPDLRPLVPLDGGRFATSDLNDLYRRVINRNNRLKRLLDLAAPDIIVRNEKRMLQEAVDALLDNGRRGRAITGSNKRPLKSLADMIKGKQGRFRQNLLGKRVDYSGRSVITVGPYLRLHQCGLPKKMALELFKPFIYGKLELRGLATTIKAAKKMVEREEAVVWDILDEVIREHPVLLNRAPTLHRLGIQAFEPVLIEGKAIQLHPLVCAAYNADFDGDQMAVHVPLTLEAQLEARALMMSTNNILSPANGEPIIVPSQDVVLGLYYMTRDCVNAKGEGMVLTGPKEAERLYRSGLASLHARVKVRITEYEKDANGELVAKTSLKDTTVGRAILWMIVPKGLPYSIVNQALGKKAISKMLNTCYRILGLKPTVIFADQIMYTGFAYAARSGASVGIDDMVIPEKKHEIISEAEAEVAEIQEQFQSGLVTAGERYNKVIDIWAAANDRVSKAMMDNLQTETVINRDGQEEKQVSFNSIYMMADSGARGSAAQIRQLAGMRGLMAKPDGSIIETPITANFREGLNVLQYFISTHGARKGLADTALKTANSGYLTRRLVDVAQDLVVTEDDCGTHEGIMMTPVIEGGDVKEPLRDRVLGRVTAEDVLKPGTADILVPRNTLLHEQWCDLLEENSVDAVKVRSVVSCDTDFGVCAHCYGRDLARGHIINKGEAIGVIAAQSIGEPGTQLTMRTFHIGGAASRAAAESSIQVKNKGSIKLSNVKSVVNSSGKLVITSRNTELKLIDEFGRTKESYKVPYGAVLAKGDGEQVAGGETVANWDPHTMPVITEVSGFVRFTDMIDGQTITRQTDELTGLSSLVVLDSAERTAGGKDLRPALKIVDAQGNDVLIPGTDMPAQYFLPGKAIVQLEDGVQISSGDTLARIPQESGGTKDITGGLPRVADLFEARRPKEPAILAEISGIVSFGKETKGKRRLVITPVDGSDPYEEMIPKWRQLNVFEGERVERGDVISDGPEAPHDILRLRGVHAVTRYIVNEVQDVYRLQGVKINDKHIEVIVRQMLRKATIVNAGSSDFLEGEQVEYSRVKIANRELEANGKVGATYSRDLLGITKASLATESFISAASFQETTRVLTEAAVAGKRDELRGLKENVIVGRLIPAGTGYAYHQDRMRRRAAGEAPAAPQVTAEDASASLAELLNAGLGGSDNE
E. coli RNA polymerase, sequence (P0A7Z4 whole entry partner): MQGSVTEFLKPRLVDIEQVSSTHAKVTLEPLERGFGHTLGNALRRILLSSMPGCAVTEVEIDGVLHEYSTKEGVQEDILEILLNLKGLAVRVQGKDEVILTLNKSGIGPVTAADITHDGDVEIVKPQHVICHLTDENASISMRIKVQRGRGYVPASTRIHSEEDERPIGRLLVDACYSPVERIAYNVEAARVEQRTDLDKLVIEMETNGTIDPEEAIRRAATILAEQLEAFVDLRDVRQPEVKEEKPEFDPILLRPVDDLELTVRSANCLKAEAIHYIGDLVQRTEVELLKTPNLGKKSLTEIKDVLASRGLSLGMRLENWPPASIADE
E. coli RNA polymerase, sequence (P0A800 whole entry partner): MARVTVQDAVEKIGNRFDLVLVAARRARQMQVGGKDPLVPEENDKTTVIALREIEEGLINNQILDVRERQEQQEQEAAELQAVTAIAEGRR

[1] = test system: E. coli containing the lasQS device; assay: Growth rate of E. coli containing the lasQS inducible device exposed to AHL (microplate OD600); assay type: cell-based, Escherichia coli; details: glucose 20 mM
Procedure: For characterizations of inducible system (lasQS device) in the vector pBbE8K, cells were first grown to stationary phase overnight in LB medium before being diluted 100× into fresh LB medium. The diluted cells were grown to exponential phase (OD600=1), washed and resuspended in supplemented minimal media with varying glucose concentration (20-0.1 mM) as mentioned earlier. Before being subjected to the microplate fluorescence assay, N-(3-Oxododecanoyl)-L-homoserine lactone (3-Oxo-C12-HSL, Sigma-Aldrich) was added to the pre-culture (Top10—pTetR-LasR-pLuxR-RFP) at varying molar concentrations of 10^−7-10^−9 M. The cell cultures were measured for their OD600 and RFP fluorescence for 6 h.
For each promoter, the three OD600 and RFP data were averaged and background absorbance (wells containing only media) and fluorescence (Top10—E8K)) were subtracted from the raw measurements to obtain OD600 and RFP time series. Measurements were obtained in mid-exponential growth and growth rates were calculated as a time derivative of the OD curves, μ=d ln(OD)/dt. The activity of the promoters (RFP synthesis rate per cell) were calculated by, d(RFP)/dt/OD600. Relative promoter units of every promoter studied were calculated by,
The lasQS device used in this study comprised three key components (FIG. 5(A)): the AHL synthetase LasI, the transcription factor LasR, and the lasI promoter. LasI produces the signaling molecule 3-O—C12-HSL (or AHL), and the LasR-AHL complex activates the lasI promoter. First, to examine the characteristics of the lasQS device, we constitutively expressed LasR using a sigma-70 promoter J23105, derived from the BioBrick parts registry (www.partsregistry.org/Part:pSB1K3). The activity of the device was indicated by red fluorescence protein (RFP), which was placed under the control of the lasI promoter. E. coli containing the lasQS device was exogenously exposed to AHL concentrations ranging from 10^−9 M to 10^−7 M and varying glucose concentrations.

CO[C@H]1/C=C/O[C@@]2(C)Oc3c(C)c(O)c4c(O)c(c(/C=N/N5CCN(C)CC5)c(O)c4c3C2=O)NC(=O)/C(C)=C\C=C\[C@H](C)[C@H](O)[C@@H](C)[C@@H](O)[C@@H](C)[C@H](OC(C)=O)[C@@H]1C [rifampicin]
growth rate (wild-type E. coli Top10; rifampicin 6 μM, maximum glucose concentration): 0.79 doublings per hour | growth rate (wild-type E. coli Top10; rifampicin 8 μM, maximum glucose concentration): 0.68 doublings per hour | growth rate (wild-type E. coli Top10; rifampicin 10 μM, maximum glucose concentration, M9 supplemented media): 0.55 doubling per hour | pKi (E. coli RNA polymerase): 9.00

CN(C)[C@@H]1C(O)=C(C(N)=O)C(=O)[C@@]2(O)C(O)=C3C(=O)c4c(O)cccc4[C@@](C)(O)[C@H]3C[C@@H]12 [tetracycline]
growth rate (wild-type E. coli Top10; tetracycline 4 μM): 0.19 doublings per hour | growth rate (wild-type E. coli Top10; tetracycline concentration of 1): 0.66 doublings per hour | growth rate (wild-type E. coli Top10; tetracycline concentration of 2): 0.38 doublings per hour

CCCCCCCCCC(=O)CC(=O)N[C@H]1CCOC1=O [AHL, N-(3-Oxododecanoyl)-L-homoserine lactone]
reduction in growth rate ([1]; AHL 10^−7 M): 23% | reduction in growth rate ([1]; AHL 10^−8 M): 13% | reduction in growth rate ([1]; AHL 10^−9M): 7%

Reference: patent publication US20170147742A1 (priority 2014, published 2017)
